1 compound from patent publication US20240299553A1, “INDOCARBOCYANINE LIPID DERIVATIVES FOR IN VIVO CARGO DELIVERY” (priority 2021, published 2024) can be followed below.

Structures are written as SMILES.

A short description of data set [1]: Lipid extraction of tumors and organs, dye biodistribution. The class given is in vivo, mice. Conditions: 48 h post-injection. The procedure:
For extraction using a modified Bligh-Dyer method, 50-100 mg tissue was homogenized as described above, 10 parts of chloroform/methanol (2:1) were added to the homogenate (considering that tissue weight is 1 part), and the samples were mixed at 1400 rpm for 2 h at room temperature on Eppendorf Thermomixer. The tubes were centrifuged at 500 g for 10 min. The organic phase (bottom, approximately 80% of the added amount) was carefully collected, dotted on a PVDF membrane and scanned for DiI and Cy5 fluorescence as described above. Different dilutions of liposomes (standard curve) were scanned together with the samples. The percentage of the injected DiI and Cy5 in the extract was calculated from the standard curve and divided by tissue weight. The fluorescence of control non-injected organs was subtracted from that of injected organs. For TLC analysis, the mobile phase consisted of chloroform: methanol (9:1) with 1% trifluoroacetic acid and the samples were run on TLC Silica Gel 60 F254 plates (EMD Millipore).

The subject of data set [2] is 4T1 syngeneic orthotopic breast carcinoma. Put plainly: Confocal microscopy of 4T1 tumor slices after i.v. injection of dual-labeled liposomes. The data set is classed as in vivo, mice. Particulars: 24 h post-injection; EPC/DSPE-PEG2000 liposomes, 0.2 mole % DiI and Cy5-DSPE, i.v. The procedure: Lipids at the following molar ratios: HSPC/Chol/DSPE-PEG2000 (57/38/5) or EPC/DSPE-PEG2000 (95:5) with addition of 0.2% ICL and/or 0.2% FPL were mixed and dried under a nitrogen stream. The dry lipid cake was resuspended in PBS for a total lipid concentration of 20 mM, then incubated at 60° C. for 30 minutes. The solution was then vortexed for 2 minutes and bath sonicated. Liposomes were extruded by a syringe extruder (Avestin, Ottawa, Canada) through Whatman Nucleopore Track-Etch Membranes (200 nm pore size, 15 times). HSPC-based liposomes were extruded at 60° C., EPC-based liposomes were extruded at room temperature. Size and zeta potential were measured at room temperature in the presence of 1% phosphate-buffered saline using Zetasizer Nano (Malvern, UK). Liposomes were stored at 4° C. at a final concentration of 10 mM (total lipid) for a maximum period of 8 weeks before use.
4T1 cell line was purchased from the ATCC and verified using a sequencing core. GL261 cells were obtained from the National Cancer Institute (NCI), and CT2A cells were a gift from Dr. Tom Seyfried (Boston College). LY2 cells were from Dr. Sana Karam, University of Colorado Anschutz Medical campus. Cells were grown at 37° C. in RPMI 1640 medium containing 10% heat-inactivated fetal bovine serum, 10 mM HEPES, 100 U/ml penicillin, and […] streptomycin (all from Corning Inc. New York, NY, USA). BALB/c mice were bred in-house. Mice of 8-10 weeks of age (females) were implanted with 0.5×10^6 cells into the mammary fat pad (4T1) or subcutaneously in the jaw region (LY2) and used for experiments 1 week later when tumors reached ˜200-300 mm^3. For brain tumors, C57BL/6 mice (6-8 weeks old) were implanted with a total 1×10^5 GL261 or CT-2A cells per animal using an established protocol. To determine the distribution of liposomes in tumors and organs, liposomes were injected with 50 μl of 10 mM total lipid intravenously. Blood was collected via periorbital plexus using heparin glass capillaries, and the plasma was separated by centrifugation at 500 g for 5 min. In some experiments, mice were preinjected before dissection with 50 μl of FITC-tomato lectin (1 mg/ml) and 50 μl Hoechst 33324 (2 mg/ml) to visualize the vasculature and the nuclei. Mice were sacrificed with carbon dioxide, followed by cardiac perfusion with PBS through the left ventricle.
Nikon Eclipse AR1HD inverted confocal microscope with 405 nm, 488 nm, 561 nm, and 640 nm excitation lasers and corresponding emission filters was used. For high magnification imaging, liposomes were diluted 1:200 in PBS, mixed with glycerol at 1:1 ratio and 2 μl were placed on slide. For liposomes in plasma, the samples were diluted 1:20 and mixed with glycerol. The preparations in glycerol were spread under a coverslip and imaged under Apo60 or Apo100 Oil objective at 2048×2048 resolution. For tumor imaging, tumors or whole brains were frozen on dry ice and sliced with a blade into 1-2 mm thick slices. The slices were placed on a glass slide and imaged using Plan Apo 10 objective. Channels' voltage and laser intensity were adjusted using the dual labeled liposomes placed on a slide and imaged under the same magnification. These parameters were calibrated before each imaging session using the batch of liposomes used in that experiment. For quantification, multiple random image areas from different slices of the tumor (both periphery and center) were acquired at 512×512 resolution. Images were quantified with Fiji using customized macros. Briefly, 8-bit gray image stacks were thresholded for fluorescence in the Cy3 and Cy5 channels and the percentages of binary (positive) areas were calculated using the “Measure” function. All the data were plotted with Prism version 8.3.0 (GraphPad, San Diego, CA).

In data set [3] the test system is syngeneic intracranial GL261 glioma. Put plainly: Confocal microscopy of brain slices of GL261 glioma mice after i.v. dual-labeled liposomes. The class given is in vivo. Particulars: 48 h post-injection, EPC/DSPE-PEG2000 liposomes, 0.2% DiI and 0.2% Cy5-DSPE. The procedure: (§1) 4T1 cell line was purchased from the ATCC and verified using a sequencing core. GL261 cells were obtained from the National Cancer Institute (NCI), and CT2A cells were a gift from Dr. Tom Seyfried (Boston College). LY2 cells were from Dr. Sana Karam, University of Colorado Anschutz Medical campus. Cells were grown at 37° C. in RPMI 1640 medium containing 10% heat-inactivated fetal bovine serum, 10 mM HEPES, 100 U/ml penicillin, and […] streptomycin (all from Corning Inc. New York, NY, USA). BALB/c mice were bred in-house. Mice of 8-10 weeks of age (females) were implanted with 0.5×10^6 cells into the mammary fat pad (4T1) or subcutaneously in the jaw region (LY2) and used for experiments 1 week later when tumors reached ˜200-300 mm^3. […]
Nikon Eclipse AR1HD inverted confocal microscope with 405 nm, 488 nm, 561 nm, and 640 nm excitation lasers and corresponding emission filters was used. […] For quantification, multiple random image areas from different slices of the tumor (both periphery and center) were acquired at 512×512 resolution. Images were quantified with Fiji using customized macros. Briefly, 8-bit gray image stacks were thresholded for fluorescence in the Cy3 and Cy5 channels and the percentages of binary (positive) areas were calculated using the “Measure” function. […]

Data set [4] can be described thus: Ex vivo fluorescence imaging of excised tumors and livers. The data set is classed as in vivo, mice. As for the experimental part: Tumors and livers were placed in a 24-well plate and scanned as described above. To match the intensity of the channels, the same liposomes used for injection were diluted (1:10), dotted on a 0.45 μm nitrocellulose membrane, and scanned together with the samples. Mean fluorescence was determined from 8-bit TIFF images using Fiji software by drawing a region of interest around the tumors and using the “Measure” function to determine mean gray values. Such measurement is independent of the organ cross-section area. The mean gray values of non-injected tumors were subtracted from the measurements. For plasma fluorescence profile, plasma collected at different time points was serially diluted, dotted on a nitrocellulose membrane, scanned as above, and the mean fluorescence of dots was plotted versus time with Prism.

Data set [5] can be described thus: Plasma fluorescence elimination profile after liposome injection. The data set is classed as in vivo, mice. Conditions: 24 h post-injection; DiI/Cy5-DSPE liposomes. The procedure: as §1, with “mm^3. For brain tumors, C57BL/6 mice (6-8 weeks old) were implanted with a total 1×10^5 GL261 or CT-2A cells per animal using an established protocol.” for “mm^3.”
Tumors and livers were placed in a 24-well plate and scanned as described above. […] Mean fluorescence was determined from 8-bit TIFF images using Fiji software by drawing a region of interest around the tumors and using the “Measure” function to determine mean gray values. […] For plasma fluorescence profile, plasma collected at different time points was serially diluted, dotted on a nitrocellulose membrane, scanned as above, and the mean fluorescence of dots was plotted versus time with Prism.

For `CCCCCCCCCCCCCCCCCC(=O)OC[C@H](COP(=O)(O)OCCNC(=O)CCCCCN1C(=CC=CC=CC2=[N+](C)c3ccccc3C2(C)C)C(C)(C)c2ccccc21)OC(=O)CCCCCCCCCCCCCCCCC` [Cy5-DSPE], the “tissues with the highest dye amount” value in data set [1] was “highest in the tumor and kidney”. Moreover, in data set [1] (tumors, livers, spleens, kidneys, 1 h, 24 h), the “dye amount in tumor and organ extracts over time” value is recorded as “dropped over time in all the organs”. For the same compound, the “extravasation and distribution in tumor” value in data set [2] is “mostly confined to blood vessels”. For the same compound, the “accumulation and spreading in glioma” value in data set [3] is “almost complete absence”. Moreover, in data set [4] (livers, later time points versus 1 h), the “fluorescence in liver images over time” value is “decrease”. For the same compound, the “fluorescence in tumor images over time” value in data set [4] (tumors, 1 h, 24 h, 48 h post-injection) was “plateaued at 24 h and dropped at 48 h”. For the same compound, in data set [5], the “dye cleared from the circulation” value was “approximately 80%”.
